From ChEMBL document CHEMBL1121897, “Synthesis and antihypertensive activity of new 6-heteroaryl-3-hydrazinopyridazine derivatives” (J Med Chem, 1981)

How the values were obtained:
[1] = Acute toxicity was measured as LD50 in mice after ip administration; type: organism-based; conditions: mouse, in vivo
Rattus norvegicus [2] = assay: Antihypertensive activity was measured as ED20 which is the dose lowered the normal arterial pressure in conscious SH rats by 20% after po administration; type: functional, Artery
Rattus norvegicus [3] = assay: Hypotensive activity was measured as ED20 which is the dose lowered the normal arterial pressure in anesthetized rat by 20% after iv administration; type: functional, Artery
Rattus norvegicus [4] = assay: Relative potency of compound was measured in anesthetized rats after iv administration; type: functional
Rattus norvegicus [5] = assay: Relative potency of compound was measured in conscious SH rats after po administration; type: functional
Rattus norvegicus [6] = assay: Hypotensive activity was measured as ED20 which is the dose lowered the normal arterial pressure in anesthetized rats by 20% after iv administration.; type: functional, Artery
Rattus norvegicus [7] = assay: Relative potency of compound was measured in anesthetized rats after iv administration.; type: functional
Rattus norvegicus [8] = assay: Hypotensive activity was measured as ED20 which is the dose lowered the normal arterial pressure in anesthetized rats by 20% after iv administration; type: functional, Artery
Rattus norvegicus [9] = assay: Relative potency of compound was measured in anesthetized rats after ip administration; type: functional
[10] = Acute toxicity was measured as LD50 in mice after ip administration.; type: organism-based; conditions: mouse, in vivo
Rattus norvegicus [11] = assay: Antihypertensive activity was measured as ED20 which is the dose lowered the normal arterial pressure in conscious SH rats by 20% after po administration.; type: functional, Artery
Rattus norvegicus [12] = assay: Relative potency of compound was measured in conscious SH rats after po administration.; type: functional
Rattus norvegicus [13] = assay: Hypotensive activity was measured as ED20 which is the dose lowered the normal arterial pressure in anesthetized rats by 20% after ip administration.; type: functional, Artery
Rattus norvegicus [14] = assay: Relative potency of compound was measured in anesthetized rats after ip administration.; type: functional

Cl.NNc1ccc(-n2cccc2)nn1
LD50 [1]: 389 µmol/kg | ED20 (Rattus norvegicus [2]): 40.1 µM/kg | ED20 (Rattus norvegicus [3]): 0.423 µM/kg | Relative potency (Rattus norvegicus [4]): 1.06 | Relative potency (Rattus norvegicus [5]): 0.9

CC(C)=NNc1ccc(-n2cccc2)nn1.Cl
ED20 (Rattus norvegicus [6]): 4.65 µM/kg | Relative potency (Rattus norvegicus [7]): 0.1

Cc1ccc(C)n1-c1ccc(NN)nn1.Cl
ED20 (Rattus norvegicus [8]): 8.02 µM/kg | Relative potency (Rattus norvegicus [9]): 0.06

CC(C)=C/C(C)=N\Nc1ccc(-n2cccc2)nn1.Cl
ED20 (Rattus norvegicus [6]): 1.77 µM/kg | Relative potency (Rattus norvegicus [7]): 0.25

NNc1ccc(-c2ccc(Cl)s2)nn1
ED20 (Rattus norvegicus [8]): 9.51 µM/kg | Relative potency (Rattus norvegicus [9]): 0.19

CCc1nccn1-c1ccc(NN=C(C)C)nn1
LD50 [10]: 508 µmol/kg | ED20 (Rattus norvegicus [11]): 10.2 µM/kg | ED20 (Rattus norvegicus [6]): 0.247 µM/kg | Relative potency (Rattus norvegicus [7]): 1.82 | Relative potency (Rattus norvegicus [12]): 3.54

NNc1ccc(-n2c3ccccc3c3ccccc32)nn1
Relative potency (Rattus norvegicus [9]): <0.11

NNc1ccc(-c2cccs2)nn1
LD50 [1]: 521 µmol/kg | ED20 (Rattus norvegicus [8]): 0.41 µM/kg | Relative potency (Rattus norvegicus [9]): 1.08

Cc1nccn1-c1ccc(NN)nn1
LD50 [1]: 1020 µmol/kg | ED20 (Rattus norvegicus [2]): 7.42 µM/kg | ED20 (Rattus norvegicus [8]): 0.163 µM/kg | Relative potency (Rattus norvegicus [9]): 2.75 | Relative potency (Rattus norvegicus [5]): 4.88

NNc1ccc(-n2ccnc2)nn1
LD50 [1]: 853 µmol/kg | ED20 (Rattus norvegicus [8]): 2.64 µM/kg | Relative potency (Rattus norvegicus [9]): 0.17

CCc1nccn1-c1ccc(NN)nn1
LD50 [1]: 765 µmol/kg | ED20 (Rattus norvegicus [2]): 14.3 µM/kg | ED20 (Rattus norvegicus [8]): 0.313 µM/kg | Relative potency (Rattus norvegicus [9]): 1.43 | Relative potency (Rattus norvegicus [5]): 2.52

NNc1ccc(-n2cncn2)nn1
LD50 [1]: 262 µmol/kg | Relative potency (Rattus norvegicus [9]): 0.17

NNc1ccc(-n2ccc3ccccc32)nn1
LD50 [1]: 206 µmol/kg | ED20 (Rattus norvegicus [8]): 2.06 µM/kg | Relative potency (Rattus norvegicus [9]): 0.22

NNc1ccc(-n2cccn2)nn1
LD50 [1]: 387 µmol/kg | ED20 (Rattus norvegicus [2]): 27.3 µM/kg | ED20 (Rattus norvegicus [8]): 0.83 µM/kg | Relative potency (Rattus norvegicus [12]): 1.32

NNc1ccc(-n2cccc2)[n+]([O-])n1
ED20 (Rattus norvegicus [13]): >5.24 µM/kg | Relative potency (Rattus norvegicus [14]): <0.34

CC(C)=NNc1ccc(-n2ccnc2C)nn1
LD50 [10]: 430 µmol/kg | ED20 (Rattus norvegicus [11]): 10.7 µM/kg | ED20 (Rattus norvegicus [6]): 0.242 µM/kg | Relative potency (Rattus norvegicus [7]): 1.86 | Relative potency (Rattus norvegicus [12]): 3.37

N/N=c1\[nH][nH]/c(=N\N)c2ccccc12 [DIHYDRALAZINE]
LD50 [10]: 1080 µmol/kg | ED20 (Rattus norvegicus [11]): 36.1 µM/kg | ED20 (Rattus norvegicus [13]): 1.78 µM/kg | ED20 (Rattus norvegicus [6]): 0.449 µM/kg | Relative potency (Rattus norvegicus [7]): 1 | Relative potency (Rattus norvegicus [12]): 1
